{"source": "patent US4814336A", "about": "“Method of treating a vascular obstructive lesion resulting from restricted blood circulation” (CHINOIN Gyogyszer es Vegyeszeti Termekek Gyara Rt, priority 1985, dated 1989)", "key": {"[1]": {"tested_on": "patients suffering from cerebral obliterating vascular diseases", "assay": "Clinical examination, cerebral obliterating vascular disease, symptoms", "assay_type": "in vivo, human patients", "conditions": "450 mg/day orally, 10 days", "method": "(§1) The clinical examinations carried out on patients suffering from lower leg and cerebral obliterating vascular diseases gave the following results: 41 patients were treated for 10 days in a dose of 450 mg/day Depogen or Trental orally (beside 5 healthy controls)."}, "[2]": {"tested_on": "patients suffering from cerebral obliterating vascular diseases", "assay": "EEG examination", "assay_type": "in vivo, human patients", "conditions": "450 mg/day orally, 10 days; for EEG deteriorated (number of patients) / EEG improved (number of patients) / EEG unchanged (number of patients): total 9 (Trental), 8 (Depogen)", "method": "as §1"}, "[3]": {"tested_on": "erythrocytes of patients with lower leg and cerebral obliterating vascular diseases", "assay": "Erythrocyte filtrability (T1/2) of patients with lower leg and cerebral obliterating vascular diseases after 10 days treatment", "assay_type": "in vivo, human patients", "conditions": "450 mg/day orally; for T1/2 average of erythrocyte filtration after treatment: before treatment 18.15 min, healthy control 8.7 min", "method": "as §1"}, "[4]": {"tested_on": "extremital vascular resistence", "conditions": "patients, doses up to 300 mg/day; cited from earlier work"}, "[5]": {"tested_on": "patients suffering from lower leg obliterating vascular diseases", "assay": "Clinical examination, lower leg obliteration", "assay_type": "in vivo, human patients", "conditions": "450 mg/day orally, 10 days; Depogen compared with Trental", "method": "as §1"}, "[6]": {"tested_on": "patients suffering from cerebral obliterating vascular diseases", "assay": "ECHO examination", "assay_type": "in vivo, human patients", "conditions": "450 mg/day orally, 10 days; for ECHO deteriorated (number of patients) / ECHO improved (number of patients) / ECHO unchanged (number of patients): total 9 (Trental), 8 (Depogen)", "method": "as §1"}, "[7]": {"tested_on": "contracted (shrunken) erythrocytes", "assay": "In vitro filtrability (filtration half-time T1/2) of contracted (shrunken) erythrocytes, method of Teitel", "assay_type": "cell-based, human", "conditions": "from ID50", "method": "FIG. 1 is a set of two graphs in which the filtration half-times (T1/2) for contracted (shrunken) erythrocytes are plotted along the Y-axis as a percentage of the filtration half-time for normal erythrocytes (control) against doses of respectively Trental and Depogen.\n(§2) For the examination of the in vitro filtrability of the erythrocytes the method of Teitel (Nouv. Rev. Franc. Haematol. 7. 195 (1967)) was used where the filtration rate of concentrated erythrocyte suspension was measured. In the test fresh, normal erythrocytes, fresh in hyperosmotic solution shrunken erythrocytes and erythrocytes stored in CPD blood-conserving solution contracted for 30 days at +4° C. were used. The results are given in FIGS. 1 and 2 (the filtrability of the contracted erythrocytes and that of the erythrocytes stored for 30 days were given as the % of the filtrability of the control fresh, normal erythrocytes.)\n(§3) The effect depends in the case of both drugs on the doses. The optimal effect may be achieved with Depogen in lower concentration interval (0.5 to 1.5 μumol) than in case of Trental (5 to 10 μumoles)."}, "erythrocytes [8]": {"tested_on": "erythrocytes", "assay": "In vitro filtrability of erythrocytes (filtration half-time), statements on both erythrocyte types", "assay_type": "cell-based, human", "conditions": "for filtrability of the erythrocytes (result in words): FIGS. 1 and 2, T1/2 decreased", "method": "as §2, §3"}, "[9]": {"tested_on": "erythrocytes stored for 30 days", "assay": "In vitro filtrability (filtration half-time T1/2) of erythrocytes stored for 30 days, method of Teitel", "assay_type": "cell-based, human", "conditions": "from ID50", "method": "FIG. 2 is a set of two graphs in which the filtration half-time (T1/2) for erythrocytes stored for 30 days are plotted along the Y-axis as a percentage of the filtration half-time for normal erythrocytes (control) against doses of respectively Trental and Depogen.\nas §2, §3"}, "erythrocytes [10]": {"tested_on": "erythrocytes", "conditions": "Angiology 36, 4, 226-234 (1985); cited from earlier work"}}}
{"smiles": "CCOc1ccc(CC2=NCCc3cc(OCC)c(OCC)cc32)cc1OCC", "note": "[Depogen, 1-(3',4'-diethoxybenzyl)-6,7-diethoxy-3,4-dihydroisoquinolinium-theophyllin-7-acetate]", "values": [{"measurement": "effect in cerebral vascular disease, symptoms", "setting": "[1]", "value": "the symptoms have decreased"}, {"measurement": "EEG improved (% of patients)", "setting": "[2]", "value": 87.5, "unit": "%"}, {"measurement": "EEG unchanged (% of patients)", "setting": "[2]", "value": 12.5, "unit": "%"}, {"measurement": "EEG deteriorated (number of patients)", "setting": "[2]", "value": 0}, {"measurement": "EEG improved (number of patients)", "setting": "[2]", "value": 7}, {"measurement": "EEG unchanged (number of patients)", "setting": "[2]", "value": 1}, {"measurement": "filtrability of the erythrocytes after treatment (result in words)", "setting": "[3]", "value": "the filtrability of the erythrocytes has been normalized"}, {"measurement": "T1/2 average of erythrocyte filtration after treatment", "setting": "[3]", "value": 9.53, "unit": "min"}, {"measurement": "peripheral vasodilating effect and extremital vascular resistence", "setting": "[4]", "value": "has a peripheral vasodilating effect and decreases the extremital vascular resistence"}, {"measurement": "effect in lower leg obliteration", "setting": "[5]", "value": "the two drugs have the same effect"}, {"measurement": "ECHO improved (% of patients)", "setting": "[6]", "value": 12.5, "unit": "%"}, {"measurement": "ECHO unchanged (% of patients)", "setting": "[6]", "value": 87.5, "unit": "%"}, {"measurement": "ECHO deteriorated (number of patients)", "setting": "[6]", "value": 0}, {"measurement": "ECHO improved (number of patients)", "setting": "[6]", "value": 1}, {"measurement": "ECHO unchanged (number of patients)", "setting": "[6]", "value": 7}, {"measurement": "Rel. activity Depogen/Trental", "setting": "[7]", "value": 16.3}, {"measurement": "filtrability of the erythrocytes (result in words)", "setting": "erythrocytes [8]; in vitro", "value": "increase the filtrability of the erythrocytes significantly"}, {"measurement": "times lower concentration exerting the same effect as Trental", "setting": "erythrocytes [8]; in vitro, concentration for the half-maximal effect", "value": "10 to 25", "unit": "times"}, {"measurement": "optimal effect on filtrability, concentration interval", "setting": "erythrocytes [8]; in vitro, Depogen", "value": "0.5 to 1.5", "unit": "μumol"}, {"measurement": "filtrability of pathological human erythrocytes (result in words)", "setting": "erythrocytes [8]; proved by both ex vitro and in vivo tests", "value": "increases the filtrability of the pathological human erythrocytes significantly"}, {"measurement": "Rel. activity Depogen/Trental", "setting": "[9]", "value": 31.6}]}
{"smiles": "CC(=O)CCCCn1c(=O)c2c(ncn2C)n(C)c1=O", "note": "[Trental, 3,7-dihydro-3,7-dimethyl-1--(5-oxohexyl)-1H-purine-2,6-dione, reference compound]", "values": [{"measurement": "EEG improved (% of patients)", "setting": "[2]", "value": 44.5, "unit": "%"}, {"measurement": "EEG unchanged (% of patients)", "setting": "[2]", "value": 55.5, "unit": "%"}, {"measurement": "EEG deteriorated (number of patients)", "setting": "[2]", "value": 0}, {"measurement": "EEG improved (number of patients)", "setting": "[2]", "value": 4}, {"measurement": "EEG unchanged (number of patients)", "setting": "[2]", "value": 5}, {"measurement": "filtrability of the erythrocytes after treatment (result in words)", "setting": "[3]", "value": "the treatment was also in this case successful"}, {"measurement": "T1/2 average of erythrocyte filtration after treatment", "setting": "[3]", "value": 12.1, "unit": "min"}, {"measurement": "effect in lower leg obliteration", "setting": "[5]", "value": "the two drugs have the same effect"}, {"measurement": "ECHO unchanged (% of patients)", "setting": "[6]", "value": 100, "unit": "%"}, {"measurement": "ECHO deteriorated (number of patients)", "setting": "[6]", "value": 0}, {"measurement": "ECHO improved (number of patients)", "setting": "[6]", "value": 0}, {"measurement": "ECHO unchanged (number of patients)", "setting": "[6]", "value": 9}, {"measurement": "filtrability of the erythrocytes (result in words)", "setting": "erythrocytes [8]; in vitro", "value": "increase the filtrability of the erythrocytes significantly"}, {"measurement": "optimal effect on filtrability, concentration interval", "setting": "erythrocytes [8]; in vitro, Trental", "value": "5 to 10", "unit": "μumoles"}, {"measurement": "rheological parameters of the blood, plasticity of the erythrocytes", "setting": "erythrocytes [10]", "value": "improves some rheological parameters of the blood, first of all the plasticity of the erythrocytes"}]}
